According to patent US10155767B2, “Therapeutic agent of acute myeloid leukemia containing 1,3,7-trisubstituted 3,4-dihydropyrimido[4,5-D]pyrimidine-2(1H)-one derivatives” (KOREA INSTITUTE OF SCIENCE AND TECHNOLOGY, priority 2016, dated 2018):
pIC50: −log10 of the molar value.

What was measured:
[1] = system: OCI-AML3 (N-RasQ61L); experiment: Proliferation inhibitory activity, OCI-AML3 cell line; type: cell-based; conditions: Homo sapiens, OCI-AML-3; OCI-AML3 (mt-NRAS) cell line; read-out: Proliferation inhibitory ability (GI50, μM) OCI-AML3 (N-RasQ61L)
Protocol: (§1) With respect to each of the compounds synthesized in Synthesis Examples, GI50 values were calculated by measuring proliferation inhibitory abilities for mt-NRAS (G12D) Ba/F3, U937 (wt-NRAS), and OCI-AML3 (mt-NRAS) cell lines.

[2] = system: U937 (N-Ras WT); experiment: Proliferation inhibitory activity, U937 cell line; type: cell-based; conditions: Homo sapiens, U-937; U937 (wt-NRAS) cell line; read-out: Proliferation inhibitory ability (GI50, μM) U937 (N-Ras WT)
Protocol: as §1

[3] = system: Ba/F3 (N-Ras G12D); experiment: Proliferation inhibitory activity, mt-NRAS (G12D) Ba/F3 cell line; type: cell-based; conditions: Mus musculus, BaF3, read-out: Proliferation inhibitory ability (GI50, μM) Ba/F3 (N-Ras G12D)
Protocol: as §1

[4] = biological target: T1, GCK (Homo sapiens, UniProt Q12851); experiment: Kinase inhibitory activity, GCK; type: biochemical
T1 sequence (Q12851 1-820): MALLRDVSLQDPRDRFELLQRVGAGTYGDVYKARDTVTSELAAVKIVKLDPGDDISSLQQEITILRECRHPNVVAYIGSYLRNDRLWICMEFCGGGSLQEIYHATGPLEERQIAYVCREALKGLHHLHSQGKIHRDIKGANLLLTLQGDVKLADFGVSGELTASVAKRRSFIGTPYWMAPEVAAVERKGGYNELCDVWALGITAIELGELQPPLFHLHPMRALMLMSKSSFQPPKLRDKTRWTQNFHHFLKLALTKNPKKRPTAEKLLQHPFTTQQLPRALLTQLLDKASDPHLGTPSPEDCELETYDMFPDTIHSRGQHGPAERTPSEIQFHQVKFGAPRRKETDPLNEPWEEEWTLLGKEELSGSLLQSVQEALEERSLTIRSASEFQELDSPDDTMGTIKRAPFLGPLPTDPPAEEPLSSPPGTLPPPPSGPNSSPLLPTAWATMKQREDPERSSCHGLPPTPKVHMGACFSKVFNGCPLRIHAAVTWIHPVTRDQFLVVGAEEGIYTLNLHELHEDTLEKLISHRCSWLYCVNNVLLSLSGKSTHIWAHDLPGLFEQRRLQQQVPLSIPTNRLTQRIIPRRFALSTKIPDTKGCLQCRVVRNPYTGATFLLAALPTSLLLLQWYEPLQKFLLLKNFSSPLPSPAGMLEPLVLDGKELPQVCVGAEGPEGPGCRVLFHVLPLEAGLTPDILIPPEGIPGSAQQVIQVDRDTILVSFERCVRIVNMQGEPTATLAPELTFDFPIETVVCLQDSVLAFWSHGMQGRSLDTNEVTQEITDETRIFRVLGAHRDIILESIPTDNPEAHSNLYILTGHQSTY
Protocol: (§2) With respect to the compounds of the present invention, IC50 values were calculated by measuring inhibitory ability for two kinases of GCK and ACK1.

[5] = biological target: ACK1 (Homo sapiens, UniProt Q07912); experiment: Kinase inhibitory activity, ACK1; type: biochemical
Sequence of ACK1 (Q07912 whole entry): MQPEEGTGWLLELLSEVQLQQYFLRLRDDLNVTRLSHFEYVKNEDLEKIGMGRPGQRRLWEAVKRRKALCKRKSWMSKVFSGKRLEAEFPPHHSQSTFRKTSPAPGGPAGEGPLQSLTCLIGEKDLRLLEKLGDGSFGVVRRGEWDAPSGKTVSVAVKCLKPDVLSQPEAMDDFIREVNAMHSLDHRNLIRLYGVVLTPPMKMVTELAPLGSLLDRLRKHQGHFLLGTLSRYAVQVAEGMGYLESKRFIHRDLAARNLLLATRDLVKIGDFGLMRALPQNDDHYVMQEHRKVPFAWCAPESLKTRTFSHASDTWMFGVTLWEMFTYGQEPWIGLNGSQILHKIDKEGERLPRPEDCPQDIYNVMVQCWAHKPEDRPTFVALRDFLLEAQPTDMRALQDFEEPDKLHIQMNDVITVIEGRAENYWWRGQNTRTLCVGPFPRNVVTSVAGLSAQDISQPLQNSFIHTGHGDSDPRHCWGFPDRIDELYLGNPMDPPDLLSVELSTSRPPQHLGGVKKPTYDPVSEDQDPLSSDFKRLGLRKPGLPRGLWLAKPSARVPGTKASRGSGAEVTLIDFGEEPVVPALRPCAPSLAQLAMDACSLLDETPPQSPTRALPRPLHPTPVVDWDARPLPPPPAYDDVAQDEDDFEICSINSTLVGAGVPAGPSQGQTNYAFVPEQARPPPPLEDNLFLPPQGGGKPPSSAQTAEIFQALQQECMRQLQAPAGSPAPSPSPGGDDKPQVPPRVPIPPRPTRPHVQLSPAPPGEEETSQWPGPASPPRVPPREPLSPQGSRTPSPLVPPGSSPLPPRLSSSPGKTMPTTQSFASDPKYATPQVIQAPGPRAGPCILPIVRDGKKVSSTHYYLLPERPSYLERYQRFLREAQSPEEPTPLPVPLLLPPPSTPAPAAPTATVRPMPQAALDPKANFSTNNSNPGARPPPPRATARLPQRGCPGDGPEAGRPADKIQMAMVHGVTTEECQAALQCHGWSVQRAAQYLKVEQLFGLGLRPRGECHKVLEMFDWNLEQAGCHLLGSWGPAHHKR
Protocol: as §2

Row | GI50 [1] [µM] | GI50 [2] [µM] | GI50 [3] [µM] | pIC50 [4] | pIC50 [5] | SMILES
1 | 0.7 to 1.2 | ≥ 2 | ≥ 2 | 7.35 to 7.52 | > 7.52 | Cc1ccc(NC(=O)c2cccc(C(F)(F)F)c2)cc1N1Cc2cnc(NCCO)nc2N(C)C1=O [Compound 6, N-(3-(7-((2-hydroxylethyl)amino)-1-methyl-2-oxo-1,4-dihydropyrimido[4,5-d]pyrimidin-3(2H)-yl)-4-methylphenyl)-3-(trifluoromethyl)benzamide]
2 | 0.2 to 0.7 | ≥ 2 | 0.2 to 0.7 | 7.00 to 7.35 | 7.35 to 7.52 | Cc1ccc(NC(=O)c2cccc(C(F)(F)F)c2)cc1N1Cc2cnc(Nc3ccccc3)nc2N(C)C1=O [Compound 4, N-(4-methyl-3-(1-methyl-2-oxo-7-(phenylamino)-1,4-dihydropyrimido[4,5-d]pyrimidin-3(2H)-yl)phenyl)-3-(trifluoromethyl)benzamide]
3 | ≥ 2 | ≥ 2 | 0.2 to 0.7 | ≤ 6.52 | 7.00 to 7.35 | Cc1ccc(NC(=O)c2cccc(C(F)(F)F)c2)cc1N1Cc2cnc(NC3CCCCC3)nc2N(C)C1=O [Compound 5, N-(3-(7-(cyclohexylamino)-1-methyl-2-oxo-1,4-dihydropyrimido[4,5-d]pyrimidin-3(2H)-yl)-4-methylphenyl)-3-(trifluoromethyl)benzamide]
4 | 0.2 to 0.7 | ≥ 2 | 0.2 to 0.7 | 7.35 to 7.52 | 7.35 to 7.52 | Cc1ccc(NC(=O)c2cccc(C(F)(F)F)c2)cc1N1Cc2cnc(NC3CC3)nc2N(C)C1=O [Compound 7, N-(3-(7-(cyclopropylamino)-1-methyl-2-oxo-1,4-dihydropyrimido[4,5-d]pyrimidin-3(2H)-yl)-4-methylphenyl)-3-(trifluoromethyl)benzamide]
5 | < 0.2 | < 0.2 | < 0.2 | > 7.52 | 7.00 to 7.35 | CCN1CCN(c2cccc(Nc3ncc4c(n3)N(C)C(=O)N(c3cc(NC(=O)c5cccc(C(F)(F)F)c5)ccc3C)C4)c2)CC1 [Compound 2, N-(3-(7-((3-(4-ethylpiperazin-1-yl)phenyl)amino)-1-methyl-2-oxo-1,4-dihydropyrimido[4,5-d]pyrimidin-3-(2H)-yl)-4-methylphenyl)-3-(trifluoromethyl)benzamide]
6 | 0.2 to 0.7 | 0.7 to 1.2 | < 0.2 | > 7.52 | > 7.52 | Cc1ccc(NC(=O)c2cccc(C(F)(F)F)c2)cc1N1Cc2cnc(Nc3cnn(C)c3)nc2N(C)C1=O [Compound 3]
7 | < 0.2 | 1.2 to 2 | < 0.2 | > 7.52 | > 7.52 | CCN1CCN(c2ccc(Nc3ncc4c(n3)N(C)C(=O)N(c3cc(NC(=O)c5cccc(C(F)(F)F)c5)ccc3C)C4)cn2)CC1 [Compound 1, N-(3-(7-((6-(4-ethylpiperazin-1-yl)pyridin-3-yl)amino)-1-methyl-2-oxo-1,4-dihydropyrimido[4,5-d]pyrimidin-3-(2H)-yl)-4-methylphenyl)-3-(trifluoromethyl)benzamide]
